Entries after “also recorded” stand apart in the source; their conditions may differ.
Experiments:
[1] = tested on: Dickeya chrysanthemi; test: Pathogen inoculation experiment on potato (potato soft rot control effect); assay type: in vivo; conditions: potato treated at the same time with D.c. suspension 2×10^6 cfu/ml and 400 ppm MPP (FIG. 6)
Description: In order to test whether the culture filtrate of the Aspergillus terreus ANU-301 strain of the present disclosure has a control effect on potato soft rot caused by Dickeya chrysanthemi bacteria, a pathogen inoculation experiment was performed (FIG. 3).
In potato plants inoculated with Dickeya chrysanthemi bacteria (D.c.), browning progressed at the inoculation site, and symptoms of soft rot disease were confirmed.
A pathogen inoculation experiment was conducted to test whether the MPP component present in the culture filtrate of the Aspergillus terreus ANU-301 strain of the present disclosure is effective in controlling potato soft rot disease caused by Dickeya chrysanthemi bacteria (FIG. 6). In potato plants inoculated with Dickeya chrysanthemi bacteria (D.c.), browning progressed at the inoculation site, and symptoms of soft rot disease were confirmed. […] Hereinafter, the present disclosure will be described in more detail with reference to Examples. However, these examples are presented merely to describe the present disclosure in more detail, and the scope of the present disclosure is not limited to these examples.
In order to evaluate the effect of the ANU-301 strain culture filtrate on potato soft rot inhibition, the culture filtrate was prepared as follows.
The ANU-301 strain was inoculated into sterilized potato dextrose broth (PDB) and cultured at 25° C. for 5 days. […]

[2] = tested on: Dickeya chrysanthemi; test: Disc diffusion assay on NA medium; assay type: cell-based; conditions: paper filter disk wetted with 400 ppm of MPP, NA medium (FIG. 5)
Description: To this end, the NA medium (Nutrient agar medium: peptone 5 g, beef extract 1.5 g, yeast extract 1.5 g, NaCl 5 g & agar 15 g/1 L) was smeared with Dickeya chrysanthemi bacteria. After placing a paper filter disk in the center of the medium, 10 μL of culture extract and 400 ppm of MPP were wetted therein, respectively, and the result of culturing the bacteria was observed.

`CC(C)(c1ccccc1)c1ccc(O)c(C(C)(C)c2ccccc2)c1` [MPP, 2,4-bis(1-methyl-1-phenylethyl)-phenol] was tested, and the “soft rot symptoms (disease control effect)” value [1] was “soft rot symptoms were suppressed; also recorded: showed a disease inhibitory effect” and the “bacterial growth / clear zone around the disk” value [2] was “a clear zone was formed”.

Reference: patent publication US12402629B2, “Aspergillus terreus strain and composition for controlling bacterial plant diseases using strain or culture filtrate thereof” (Andong National University Industry-Academic Cooperation …, priority 2022, dated 2025)
